Measurements reported in patent publication US20090054521A1, “ZWITTERIONIC COMPOUNDS AND USE THEREOF” (Evonik Goldschmidt GmbH, priority 2007, published 2009).

What was measured:
[1] = system: skin models (reconstituted human epidermis, SkinEthic); experiment: LDH release following damage to the cells with SDS, O/W cream; settings: SDS damage for 40 min, no test formulation; total LDH after 24 and 48 h
Method: The LDH concentration was determined using a commercially available test kit (LDH test kit, Roche Diagnostics, Mannheim, Germany).
Sodium dodecyl sulphate (SDS) is known to attack the cell membrane and lead to increased LDH release. Using the experiment described below, the aim was to investigate to what extent Compound 2.1 can protect the cells following damage with SDS.
The skin models were damaged with SDS for 40 min. The test formulation, an O/W cream with 1 or 4% of Compound 2.1, was then applied. The LDH release was measured 24 and 48 h after application of the test formulation.

[2] = system: skin models (reconstituted human epidermis, SkinEthic); experiment: Anti-inflammatory effect (IL-1α) of an O/W cream after SDS damage; type: cell-based; settings: no test formulation, summed IL-1α after 24 and 48 h
Method: IL1-α is a messenger which plays a central role in inflammatory reactions in the body. Sodium lauryl sulphate (SDS) is a skin-irritative surfactant which can cause an irritative contact dermatitis in people, is used as model irritative in subject studies and, inter alia, induces the release of IL-1α. The IL-1α concentration was determined using a commercially available test kit (human IL-1α immunoassay, R&D Systems GmbH, Wiesbaden, Germany).
The aim was to investigate whether the anti-inflammatory effect of the compounds according to the invention is also present upon application from a cosmetic formulation. For this purpose, skin models were damaged with SDS. The test formulation was then applied. 24 and 48 h after the application, the Il-1α concentration was determined.

CCCCCCCCCCCCOS(=O)(=O)[O-].[Na+] [SDS, Sodium dodecyl sulphate]
LDH release as a result of the damage [1]: increased greatly | formation of the cytokine IL-1α as a result of the damage [2]: increased greatly
